Bounds are passed on as bounds.

The results in this text go back to patent US20240228488A1 (TAKEDA PHARMACEUTICAL COMPANY LIMITED, priority 2021, published 2024).

The assay deals with human activated kallikrein enzyme (Homo sapiens, UniProt P03952). Description: Plasma kallikrein inhibition, fluorogenic PFR-AMC substrate, 500 pM activated kallikrein format. The class given is biochemical. The note with it: 500 pM activated kallikrein, 300 uM PFR-AMC, 30 min preincubation, 10 min reaction; read-out: Primary Dose Response Assay: Average EC50. The essentials: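 High-enzyme format of the fluorogenic peptide assay, with EC50 taken from AMC signal: 500 pM activated kallikrein, 300 uM Pro-Phe-Arg-AMC, 30 min compound preincubation and 10 min reaction, all at room temperature, pH 7.5.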
human activated kallikrein enzyme, sequence (P03952 391-638 limits assumed): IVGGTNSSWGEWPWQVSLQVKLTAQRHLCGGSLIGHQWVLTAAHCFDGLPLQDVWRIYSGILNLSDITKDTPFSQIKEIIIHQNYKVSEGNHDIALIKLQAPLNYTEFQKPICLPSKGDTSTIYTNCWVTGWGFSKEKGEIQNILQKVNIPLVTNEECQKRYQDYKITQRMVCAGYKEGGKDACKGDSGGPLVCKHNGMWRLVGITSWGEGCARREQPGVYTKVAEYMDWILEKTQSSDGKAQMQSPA
human activated kallikrein enzyme, sequence (P03952 20-390 partner limits assumed): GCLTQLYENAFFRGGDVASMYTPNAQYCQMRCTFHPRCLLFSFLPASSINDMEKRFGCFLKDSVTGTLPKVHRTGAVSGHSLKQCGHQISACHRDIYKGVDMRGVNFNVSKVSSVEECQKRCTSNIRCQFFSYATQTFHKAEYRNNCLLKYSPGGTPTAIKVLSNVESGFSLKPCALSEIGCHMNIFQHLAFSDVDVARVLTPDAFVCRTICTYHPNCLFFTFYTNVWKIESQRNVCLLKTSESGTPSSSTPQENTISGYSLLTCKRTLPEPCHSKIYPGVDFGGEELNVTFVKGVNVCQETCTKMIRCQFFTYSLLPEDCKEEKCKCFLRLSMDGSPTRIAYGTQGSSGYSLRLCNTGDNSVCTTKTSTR
Regarding `O=C(Nc1cc(NCc2cn3cc(C4CC4)cc(OC4CNC4)c3n2)ncn1)[C@H]1C[C@@H]1c1cccc(Cl)c1` [Example 306, (1S,2S)—N-(6-(((8-(azetidin-3-yloxy)-6-cyclopropylimidazo[1,2-a]pyridin-2-yl)methyl)amino)pyrimidin-4-yl)-2-(3-chlorophenyl)cyclopropane-1-carboxamide], the EC50 is less than 1 nM.
For the molecule `Nc1cc(C2CC2)cn2cc(CNc3cc(NC(=O)[C@H]4C[C@@H]4c4cccc(Cl)c4)ncn3)nc12` [Example 308, (1S,2S)—N-(6-(((8-amino-6-cyclopropylimidazo[1,2-a]pyridin-2-yl)methyl)amino)pyrimidin-4-yl)-2-(3-chlorophenyl)cyclopropane-1-carboxamide], the EC50 was 1 to 10 nM.
Take `CS(=O)(=O)c1cc(C2CC2)cn2cc(CNc3cc(NC(=O)[C@H]4C[C@@H]4c4cc(Cl)ccn4)ncn3)nc12` [Example 325, (1S,2S)-2-(4-chloropyridin-2-yl)-N-(6-(((6-cyclopropyl-8-(methylsulfonyl)imidazo[1,2-a]pyridin-2-yl)methyl)amino)pyrimidin-4-yl)cyclopropane-1-carboxamide]: the 50% effective concentration (EC50) was less than 1 nM.
Next, `O=C(Nc1cc(N(CCO)Cc2cn3cc(C4CC4)ccc3n2)ncn1)[C@H]1C[C@@H]1c1cc(Cl)ccn1` [Example 328, (1S,2S)-2-(4-chloropyridin-2-yl)-N-(6-(((6-cyclopropylimidazo[1,2-a]pyridin-2-yl)methyl)(2-hydroxyethyl)amino)pyrimidin-4-yl)cyclopropane-1-carboxamide]: 10 to 100 nM; `N#Cc1ccc(Cl)cc1C1CC1C(=O)Nc1cc(NCc2cn3cc(C4CC4)cc(N4CCCC4=O)c3n2)ncn1` (centres unmarked) [Example 335]: 100 to 1000 nM.
Consider `COc1cc(NCc2cn3cc(C4CC4)ccc3n2)cc(NC(=O)[C@H]2C[C@@H]2c2cc(Cl)ccn2)n1` [Example 339, (1S,2S)-2-(4-chloropyridin-2-yl)-N-(4-(((6-cyclopropylimidazo[1,2-a]pyridin-2-yl)methyl)amino)-6-methoxypyridin-2-yl)cyclopropane-1-carboxamide], for which the EC50 was in the range of 1 to 10 nM.
Consider `COc1cc(NCc2cn3cc(C4CC4)ccc3n2)cc(NC(=O)[C@H]2C[C@@H]2c2cccc(Cl)c2)n1` [Example 340, (1S,2S)-2-(3-chlorophenyl)-N-(4-(((6-cyclopropylimidazo[1,2-a]pyridin-2-yl)methyl)amino)-6-methoxypyridin-2-yl)cyclopropane-1-carboxamide], for which the EC50 lay within 1 to 10 nM.
Next, `N#CC1(c2cccc(Cl)c2)CC1C(=O)Nc1cc(NCc2cn3cc(C4CC4)ccc3n2)ncn1` (centres unmarked) [Example 349, 2-(3-chlorophenyl)-2-cyano-N-(6-(((6-cyclopropylimidazo[1,2-a]pyridin-2-yl)methyl)amino)pyrimidin-4-yl)cyclopropane-1-carboxamide]: greater than 6000 nM.
Next, `CN(C(=O)[C@H]1C[C@@H]1c1cccc(Cl)c1)c1cc(NCc2cn3cc(C4CC4)ccc3n2)ncn1` [Example 350, (1S,2S)-2-(3-chlorophenyl)-N-(6-(((6-cyclopropylimidazo[1,2-a]pyridin-2-yl)methyl)amino)pyrimidin-4-yl)-N-methylcyclopropane-1-carboxamide]: greater than 6000 nM; `Cc1ccnc([C@H]2C[C@@H]2C(=O)Nc2cc(NC(C)c3cn4c(N5CC(=O)N(C)C5=O)cc(C5CC5)cc4n3)nc(C)n2)n1` (stereo partly drawn) [Example 362, (1S,2S)-N-(6-((1-(7-cyclopropyl-5-(3-methyl-2,4-dioxoimidazolidin-1-yl)imidazo[1,2-a]pyridin-2-yl)ethyl)amino)-2-methylpyrimidin-4-yl)-2-(4-methylpyrimidin-2-yl)cyclopropane-1-carboxamide]: 100 to 1000 nM; `Cc1ccnc([C@H]2C[C@@H]2C(=O)Nc2cc(NC(c3cn4cc(C5CC5)cc(N5CC(=O)N(C)C5=O)c4n3)C(F)(F)F)ncn2)n1` (stereo partly drawn) [Example 370, (1S,2S)-N-(6-((1-(6-cyclopropyl-8-(3-methyl-2,4-dioxoimidazolidin-1-yl)imidazo[1,2-a]pyridin-2-yl)-2,2,2-trifluoroethyl)amino)pyrimidin-4-yl)-2-(4-methylpyrimidin-2-yl)cyclopropane-1-carboxamide]: 10 to 100 nM.
Take `Cc1ccnc([C@H]2C[C@@H]2C(=O)Nc2cc(NCc3cn4cc(Cl)cc(N5CC(=O)N(C)C5=O)c4n3)ncn2)n1` [Example 380, (1S,2S)-N-(6-(((6-chloro-8-(3-methyl-2,4-dioxoimidazolidin-1-yl)imidazo[1,2-a]pyridin-2-yl)methyl)amino)pyrimidin-4-yl)-2-(4-methylpyrimidin-2-yl)cyclopropane-1-carboxamide]: the EC50 was less than 1 nM.
For the molecule `COc1ccc(CN2C(=O)CN(c3cc(C4CC4)cn4cc(CNc5cc(NC(=O)[C@H]6C[C@@H]6c6cccc(Cl)c6)ncn5)nc34)C2=O)cc1` [Example 397, (1S,2S)-2-(3-chlorophenyl)-N-(6-(((6-cyclopropyl-8-(3-(4-methoxybenzyl)-2,4-dioxoimidazolidin-1-yl)imidazo[1,2-a]pyridin-2-yl)methyl)amino)pyrimidin-4-yl)cyclopropane-1-carboxamide], the EC50 is 10 to 100 nM.
Regarding `O=C(Nc1cc(NCc2cn3cc(C4CC4)cc(N4CC(=O)N(CC(F)(F)F)C4=O)c3n2)ncn1)[C@H]1C[C@@H]1c1cccc(Cl)c1` [Example 398, (1S,2S)-2-(3-chlorophenyl)-N-(6-(((6-cyclopropyl-8-(2,4-dioxo-3-(2,2,2-trifluoroethyl)imidazolidin-1-yl)imidazo[1,2-a]pyridin-2-yl)methyl)amino)pyrimidin-4-yl)cyclopropane-1-carboxamide], the EC50 fell in the range of 1 to 10 nM.
Consider `Cc1ccnc([C@H]2C[C@@H]2C(=O)Nc2cc(NC(C)c3cn4cc(C5CC5)cc(N5CC(=O)N(CCOCc6ccccc6)C5=O)c4n3)nc(C3CC3)n2)n1` (stereo partly drawn) [Example 409, (1S,2S)-N-(6-((1-(8-(3-(2-(benzyloxy)ethyl)-2,4-dioxoimidazolidin-1-yl)-6-cyclopropylimidazo[1,2-a]pyridin-2-yl)ethyl)amino)-2-cyclopropylpyrimidin-4-yl)-2-(4-methylpyrimidin-2-yl)cyclopropane-1-carboxamide], for which the EC50 was in the range of 10 to 100 nM.
Take `Cc1ccnc([C@H]2C[C@@H]2C(=O)Nc2cc(N[C@@H](C)c3cn4cc(C(F)F)cc(N5CC(=O)N(C)C5=O)c4n3)ncn2)n1` [Example 416, (1S,2S)-N-(6-(((S)-1-(6-(difluoromethyl)-8-(3-methyl-2,4-dioxoimidazolidin-1-yl)imidazo[1,2-a]pyridin-2-yl)ethyl)amino)pyrimidin-4-yl)-2-(4-methylpyrimidin-2-yl)cyclopropane-1-carboxamide]: the EC50 lay within 10 to 100 nM.
Consider `Cc1ccnc([C@H]2C[C@@H]2C(=O)Nc2cc(N[C@H](C)c3cn4cc(C(F)F)cc(N5CC(=O)N(C)C5=O)c4n3)ncn2)n1` [Example 417, (1S,2S)-N-(6-(((R)-1-(6-(difluoromethyl)-8-(3-methyl-2,4-dioxoimidazolidin-1-yl)imidazo[1,2-a]pyridin-2-yl)ethyl)amino)pyrimidin-4-yl)-2-(4-methylpyrimidin-2-yl)cyclopropane-1-carboxamide], for which the EC50 is less than 1 nM.

In general, EC50 refers to the midpoint of the concentration-response curve.
